How the values were obtained:
[1] = system: TrkA-His tagged extracellular domain protein (Ala 34-Gly423); assay: MST binding of CD44v3 mimetic peptides to TrkA; details: TrkA-His 200 nM labelled with RED-Tris-NTA, PBS-T
Method: MST was conducted using an NT.115 A Pico MST instrument (Nano Temper Technologies GmbH) equipped with red and blue filter sets. The TrkA-His tagged extracellular domain protein (Ala 34-Gly423) (9966-TK-050; R&D Systems, United Kingdom), diluted to 200 nM in PBS-T buffer (supplied by the vendor), was labeled using a Monolith His-Tag Labeling Kit with RED-Tris-NTA (Nano Temper). The RED-Tris-NTA dye was diluted in PBS-T to 100 nM. The mix was incubated at RT in the dark for 30 min. Next, an extract expressing CD44v3-labeled protein (CD44v3-His) and ligand and/or TrkA was mixed at a 1:1 ratio and incubated at RT in the dark for 15 min. For the binding check, peptides and TrkA-His were used. Capillaries were filled individually and loaded into the instrument. The data were acquired using high MST power and 100% LED. The data were analyzed using MO Control Software (Nano Temper).
Fig. 2 The C-terminal region of CD44v3 and the His112 residue of TrkA are involved in the CD44v3/TrkA interaction. TrkA/CD44v3 complex association was detected by the proximity ligation assay (PLA) in wild-type TrkA- or TrkA_H112A- and CD44v3-expressing COS-7 cells. Proximity ligation assays were performed after 0, 5 and 30 min of NGF treatment (100 ng/ml). Representative images of signals detected by PLA (A) and their quantification (B). Sequence of CD44 exon variant 3 and deletion mutant Δ3 or Δ4 (C). TrkA/CD44v3 complex association was detected by PLA in wild-type TrkA and CD44v3 wild type or CD44v3 deleted mutant Δ3 or Δ4 expressing COS-7 (D, E). Sequence of CD44v3 mimetic peptides (F) and structure (G). TrkA binding to CD44v3 mimetic peptides by microscale thermophoresis (H) and effects of CD44v3 mimetic peptides 3 (RDRHLSFSGSG) and 4 ([…]) on TrkA/CD44v3 complex formation (I, J). Quantification of PLA was performed using ImageJ software (30 fields per condition of three different experiments). Statistical analyses were performed using one-way ANOVA followed by Bonferroni’s posttest.
To block the TrkA-CD44v3 association, 4 mimetic peptides of CD44v3 were designed corresponding to zone 1 [(K) STSSNTISAG], zone 2 (WEPNEENEDE), zone 3 (RDRHLSFSGSG) and zone 4 (IDDDEDFISST) (Fig. 2F & G). The binding capacities of the CD44v3 mimetic peptides to TrkA were then measured by MST (Fig. 2H). […] To confirm mimetic peptide 4 binding, we assessed its ability to bind TrkA using nanoscale differential scanning fluorimetry (nanoDSF; Supplementary Fig. 6A & B).

[2] = system: TrkA/CD44v3 complex in BT-474 cells; assay: PLA TrkA/CD44v3 complex formation in BT-474 cells; assay type: cell-based; details: luminal B; NGF 100 ng/ml
Method: Cells (10,000 cells per well) were grown on acid-washed eight-well glass slides (Thermo Scientific) in the appropriate medium supplemented with 10% FBS for 24 h. After NGF treatment, paraformaldehyde (PAF)-fixed cells were incubated with 4% bovine serum albumin (BSA) or 5% FBS (for 1 h at 20 °C), followed by overnight incubation with primary antibodies (rabbit anti-TrkA or rabbit anti-IgG + mouse anti-pan-CD44; mouse anti-CD44v3; mouse anti-CD44v6; mouse anti-IgG2a; mouse anti-IgG2b; or mouse anti-IgG1). PLA was performed following the manufacturer’s instructions in the assay kit (Duolink PLA; Sigma–Aldrich). To obtain the correct representation of the PLA signal for each condition, 30 fields per condition were observed using a fluorescence microscope (Eclipse TiU; Nikon, Japan). The PLA signals (red dots) were automatically quantified using ImageJ software (with an in-house-developed plug-in). […]
Fig. 7 The TrkA/CD44v3 complex is formed in PR-negative breast cancer cells and tumors. TrkA/CD44v3 complex formation was measured in SUM159-PT (triple negative—i.e., ERα-, PR-, and Her2-) cells (A), T47-D (luminal A—i.e., ERα+, PR+, and Her2-) cells (B), BT-474 (luminal B—ERα+, PR+, and Her2+) cells (C), HCC-1954 (Her2-like—ERα-, PR-, and Her2+) cells (D), and 150 tumor patient samples obtained from US BioMax (HBre-Duc150Sur01) (E, F) using the proximity ligation assay (PLA). […]

Row | binding to TrkA by MST (in words) [1] | Substance | effect on TrkA/CD44v3 complex formation (PLA) in BT-474 cells [2]
1 | could bind TrkA | IDDDEDFISST [Peptide 4, mimetic peptide 4 (…) corresponding to the C-terminal region of CD44v3] | 
2 |  | NGF: recombinant human β-NGF (Alomone Labs, Israel) | NGF induction was insufficient to modulate TrkA/CD44v3 complex formation in BT-474 (luminal B) cells

From paper PMC8962522, “Direct interaction of TrkA/CD44v3 is essential for NGF-promoted aggressiveness of breast cancer cells” (Journal of Experimental & Clinical Cancer Research : CR, 2022)
